Data set [1] can be described thus: [^18F]NAV4694 solution for injection: stability (radiochemical purity over time). Format: physicochemical. The procedure:
[^18F]NAV4694 solution for injection was tested over a range of radioactivity concentration values to determine the capacity and potential expiry at given concentrations.

The nature of data set [2]: Filter type and excipient compatibility screen, retention of tracer on filter (FIG. 1). Format: physicochemical. The following applies: in PEG400 at levels of the excipient exceeding 10%; Sartorius Minisart 16596 HY 0.2 μm (FIG. 1). The method, then: In examples of experiments, tests were performed on prospective formulations with different filter types to screen for compatibility of the filter material. Both cellulose and polyethersulfone membranes retained unacceptable quantities of the drug substance, with the lowest retention values obtained using polyvinylidene difluoride (PVDF) and polytetrafluoroethylene (PTFE) derived membranes.
In this case, a solution of [^18F]NAV4694 in PEG400 appears to have low retention at levels of the excipient exceeding 10%.
In the ensuing experiments, each of the excipients were formulated at multiple concentration levels (within acceptable ranges) then treated with small quantities of [^18F]NAV4694 and finally filtered through the preferred filter units. The percent retention of drug substance was then directly calculated through measurement of the actual quantity of radioactivity retained on the filter and compared to that remaining in the filtrate.

Setting [3] is: radioactivity concentration below about 75 mCi/mL.
Where [4] appears, read: very high activity levels (>100 mCi/mL).

On to `CNc1ccc(-c2cc3cc(O)ccc3o2)c([18F])n1` [[^18F]NAV4694, 2-[2-(^18F)fluoro-6-(methylamino)-3-pyridinyl)-5-benzofuranol], for which, in data set [1] (setting [3]), the initial radiochemical purity entry is reported as “high initial radiochemical purity” and the “time over which high radiochemical purity is retained” value is recorded as “retained over at least ten hours”. In data set [1] (setting [4]), the decomposition entry is reported as “accelerated decomposition” and the initial radiochemical purity result was “lower initial radiochemical purity”. Besides, the “retention of the tracer on the filter” value in data set [2] is given as “low retention”.

The values above are taken from patent publication US20180344881A1, “FORMULATIONS FOR 2-HETEROARYL SUBSTITUTED BENZOFURANS” (Navidea Biopharmaceuticals, Inc., priority 2015, published 2018).
